From US10000500B2 (PROMEGA CORPORATION, priority 2016, dated 2018)

How the values were obtained:
Type in all cases: biochemical
NANOLUC® Luciferase [1] = biological target: T1, NANOLUC® Luciferase (Oplophorus gracilirostris, UniProt Q9GV45, A31E/A60N/A81I/F95D/I117V/K70R/L54V/L99Q/M102K/N193R/P142E/Q151K/Q38R/Q45L/V71I/Y165I); test: Luminescence assay with purified NANOLUC luciferase (Example 7); details: value marked (Autolum): autoluminescence
Renilla luciferase [2] = biological target: T2, Renilla luciferase (Renilla reniformis, UniProt P27652); test: Spectral measurements in various buffers with Renilla luciferase (Example 10); parameters: Low / High / Width: unit not given here; details: for RenillaGlo (spectral peak, Table 4): RenillaGlo buffer; for High / Low / Peak / Width: emission spectrum
T2 sequence (P27652 1-311): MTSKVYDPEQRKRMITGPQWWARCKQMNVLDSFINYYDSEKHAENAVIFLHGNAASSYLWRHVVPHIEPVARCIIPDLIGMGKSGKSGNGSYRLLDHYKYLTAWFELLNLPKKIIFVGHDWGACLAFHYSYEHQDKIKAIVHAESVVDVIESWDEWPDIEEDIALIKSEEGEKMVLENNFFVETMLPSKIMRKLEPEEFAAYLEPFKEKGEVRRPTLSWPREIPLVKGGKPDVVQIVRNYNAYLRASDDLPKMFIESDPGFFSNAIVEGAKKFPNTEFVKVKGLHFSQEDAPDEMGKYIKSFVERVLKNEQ
Method: (§1) Each compound to be screened was diluted to a concentration of 100 uM (50 uM final concentration) in Renilla Glo Luciferase Assay buffer (Promega Corporation), NANO-GLO Luciferase Assay Buffer (Promega Corporation), or 20 uM (10 uM final) in OptiMEM+0.1% FBS. NANOLUC® luciferase and Renilla luciferase were serially diluted to 4, 40, and 400 ng/ml in OptiMEM+0.1% FBS. 50 ul of each compound dilution was mixed with 50 ul enzyme dilution and incubated for 1 minute at room temperature. Autoluminescence spectra of AS-353 was measured by adding 20 uM of substrate to OptiMEM+20% FBS and then 50 ul of this dilution was combined with 50 ul of OptiMEM+0.1% FBS. Spectral measurements were measured using a Tecan M-1000 luminometer. ([…]).

NANOLUC® Luciferase [3] = biological target: T1, NANOLUC® Luciferase; test: Km and Vmax substrate titration with NanoLuc luciferase (Example 8); details: for light produced by NanoLuc luciferase compared to Renilla: FIGS. 1A-1D
Method: (§2) Each compound to be screened was diluted to a concentration of 100 uM in Renilla Glo Luciferase Assay buffer (Promega Corporation) and then further diluted to 2×serial dilution in Renilla Glo Luciferase Assay Buffer. NANOLUC® luciferase and Renilla luciferase were diluted to a concentration of 4 ng/ml in OptiMEM+0.1% FBS. 50 ul of each compound dilution was then mixed with 50 ul of each enzyme dilution and incubated for 1 minute at room temperature. Light output for each compound was measured on a GLOMAX®-Multi+ luminometer. Km and Vmax were calculated for each enzyme/substrate combination using a GraphPad Prism Michaelis-Menten non-linear fit (FIGS. 1A-ID).

NANOLUC® Luciferase [4] = biological target: T1, NANOLUC® Luciferase; test: Spectral measurements in various buffers with NANOLUC luciferase (Example 10); details: for NanoGlo (spectral peak, Table 4) / OptiMEM (spectral peak, Table 4) / High / Low / Peak / Width: NanoLuc; for NanoGlo (spectral peak, Table 4): NanoGlo buffer; for High / Low / Peak / Width: emission spectrum; for shift of the NanoLuc luciferase spectral properties: FIGS. 3A-3C and 4A-4D
Method: as §1

Renilla luciferase [5] = biological target: T2, Renilla luciferase; test: Km and Vmax substrate titration with Renilla luciferase (Example 8)
Method: as §2

NANOLUC® Luciferase [6] = biological target: T1, NANOLUC® Luciferase; test: Enzyme titration with NanoLuc luciferase (Example 9B); details: NanoLuc luciferase, FIG. 2B
Method: Renilla luciferase and NanoLuc Lucifersase were diluted to a concentration of 4 ug/ml (4 ng/uL) in OptiMEM+0.1% FBS. 10× serial dilutions of the luciferases were then prepared in OptiMEM+0.1% FBS. Each substrate was diluted to 100 uM into Renilla Glo Luciferase assay buffer (Promega Corporation). The 10× enzyme serial dilutions were then combined with the substrate dilutions, 50 ul mixed with 50 ul compound, and incubated for 1 minute at room temperature. Light output for each compound was measured on a GLOMAX®-Multi+ luminometer.

NANOLUC® Luciferase [7] = biological target: T1, NANOLUC® Luciferase; test: Luminescence assay with purified NANOLUC luciferase (Example 7); details: bioluminescence with NANOLUC luciferase
Method: Each compound to be screened was dissolved in DMSO (5 mM) and then further diluted to 100 uM in NANO-GLO® Luciferase Assay Buffer. Each diluted substrate was then combined in equal volumes with purified NANOLUC® Luciferase diluted into CO2 independent media+10% FBS. Initial light output for each substrate was measured in a GLOMAXI-Multi+luminometer three minutes after substrate addition and then at five minute intervals as a means to determine signal half-life.
The synthesized coelenterazine analogues (compounds of formula (I) and (II)) were evaluated for their suitability as luciferase substrates. NANOLUC® luciferase was employed for the screening because it is a small (19 kDa), stable, and particularly bright enzyme.

[8] = NanoLuc 4 ng/ml, Renilla Glo buffer, Michaelis-Menten fit
[9] = Renilla luciferase 4 ng/ml, Renilla Glo buffer, Michaelis-Menten fit

T1 sequence (Q9GV45 28-196 with tags or gaps with the stated changes limits assumed): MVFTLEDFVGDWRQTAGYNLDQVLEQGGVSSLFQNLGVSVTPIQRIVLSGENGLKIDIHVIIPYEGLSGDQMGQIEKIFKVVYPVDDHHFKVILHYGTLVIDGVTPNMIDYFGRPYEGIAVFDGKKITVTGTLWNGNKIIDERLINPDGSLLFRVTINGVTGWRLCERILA

Row | Structure (SMILES) | λmax, nm (Autolum) (NANOLUC® Luciferase [1]) | RenillaGlo (spectral peak, Table 4) (Renilla luciferase [2]; Renilla) | High (Renilla luciferase [2]; Renilla/RenillaGlo) | Low (Renilla luciferase [2]; Renilla/RenillaGlo) | Peak (Renilla luciferase [2]; Renilla/RenillaGlo) | Width (Renilla luciferase [2]; Renilla/RenillaGlo) | NanoGlo (spectral peak, Table 4) (NANOLUC® Luciferase [4]) | OptiMEM (spectral peak, Table 4) (NANOLUC® Luciferase [4]) | High (NANOLUC® Luciferase [4]; NanoGlo Buffer) | Low (NANOLUC® Luciferase [4]; NanoGlo Buffer) | Peak (NANOLUC® Luciferase [4]; NanoGlo Buffer) | Width (NANOLUC® Luciferase [4]; NanoGlo Buffer) | High (NANOLUC® Luciferase [4]; OptiMEM + 0.1% FBS) | Low (NANOLUC® Luciferase [4]; OptiMEM + 0.1% FBS) | Peak (NANOLUC® Luciferase [4]; OptiMEM + 0.1% FBS) | Width (NANOLUC® Luciferase [4]; OptiMEM + 0.1% FBS) | shift of the NanoLuc luciferase spectral properties (NANOLUC® Luciferase [4]) | λmax, nm (NANOLUC® Luciferase [7]) [nm] | other results
1 | N#Cc1ccc(-c2[nH]c(-c3cccs3)cn3c(=O)c(Cc4ccco4)nc2-3)s1 [AS-287, 5-(2-(furan-2-ylmethyl)-3-oxo-6-(thiophen-2-yl)-3,7-dihydroimidazo[1,2-a]pyrazin-8-yl)thiophene-2-carbonitrile] | 556 (Autolum) nm | – | – | – | – | – | – | – | – | – | – | – | – | – | – | – | – | – | –
2 | Oc1ccc(-c2cn3c(O)c(Cc4ccccc4)nc3c(Cc3ccccc3)n2)cc1 [Coelenterazine-H] | – | 490 | 541 | 454 | 490 | 87 | 466 | 460 | 508 | 433 | 466 | 75 | 502 | 433 | 460 | 69 | – | – | OptiMEM (spectral peak, Table 4) (Renilla luciferase [2]; Renilla): 487; High (Renilla luciferase [2]; Renilla, OptiMEM + 0.1% FBS): 535; Low (Renilla luciferase [2]; Renilla, OptiMEM + 0.1% FBS): 451; Peak (Renilla luciferase [2]; Renilla, OptiMEM + 0.1% FBS): 487; Width (Renilla luciferase [2]; Renilla, OptiMEM + 0.1% FBS): 84; light produced by NanoLuc luciferase compared to Renilla (NANOLUC® Luciferase [3]): significantly more light than Renilla; Vmax (NANOLUC® Luciferase [3]; [8]): 19,790,000; Km (NANOLUC® Luciferase [3]; NanoLuc 4 ng/ml, Renilla Glo buffer, Michaelis-Menten fit, read-out: Km): 36.4 µM; more light with Renilla luciferase compared to Furimazine (Renilla luciferase [5]; FIGS. 1A-1D): ~7 ×; Km (Renilla luciferase [5]; [9]): 3.26 µM; Vmax (Renilla luciferase [5]; [9]): 64,494
3 | O=c1c(Cc2ccco2)nc2c(-c3ccnc(F)c3)[nH]c(-c3ccnc(F)c3)cn1-2 [AS-295, 26,8-bis(2-fluoropyridin-4-yl)-2-(furan-2-ylmethyl)imidazo[1,2-a]pyrazin-3(7H)-one] | 520 (Autolum) nm | – | – | – | – | – | – | – | – | – | – | – | – | – | – | – | – | – | –
4 | N#Cc1ccc(-c2[nH]c3ccccc3n3c(=O)c(Cc4ccco4)nc2-3)s1 [AS-293, 5-(2-(furan-2-ylmethyl)-1-oxo-1,5-dihydroimidazo[1,2-a]quinoxalin-4-yl)thiophene-2-carbonitrile] | 596 (Autolum) nm | – | – | – | – | – | – | – | – | – | – | – | – | – | – | – | – | – | –
5 | O=c1c(Cc2ccco2)nc2c(-c3ccnc4ccccc34)[nH]c(-c3ccc(O)cc3)cn1-2 [AS-360, 2-(furan-2-ylmethyl)-6-(4-hydroxyphenyl)-8-(quinolin-4-yl)imidazo[1,2-a]pyrazin-3(7H)-one] | – | 487 | 553 | 451 | 487 | 102 | 589 | 583 | 647 | 538 | 589 | 109 | 646 | 532 | 583 | 114 | shifted the NanoLuc® luciferase spectral properties to red | – | luminescence rank in the panel tested (NANOLUC® Luciferase [6]): brightest luminescence in the panel tested; brighter than both Renilla and NanoLuc luciferase with AS-361 (NANOLUC® Luciferase [6]; substrate 100 uM): ~30 ×
6 | O=c1c(Cc2ccco2)nc2c(-c3ccnc4ccccc34)[nH]c(-c3ccccc3)cn1-2 [AS-310, 2-(furan-2-ylmethyl)-6-phenyl-8-(quinolin-4-yl)imidazo[1,2-a]pyrazin-3(7H)-one] | – | – | – | – | – | – | 574 | 571 | 631 | 526 | 574 | 105 | 631 | 520 | 571 | 111 | shifted the NanoLuc® luciferase spectral properties to red | 571 | –
7 | N#Cc1ccc(-c2[nH]c(-c3ccccc3)cn3c(=O)c(Cc4ccco4)nc2-3)s1 [AS-262, 5-(2-(furan-2-ylmethyl)-3-oxo-6-phenyl-3,7-dihydroimidazo[1,2-a]pyrazin-8-yl)thiophene-2-carbonitrile] | – | – | – | – | – | – | 577 | 574 | 634 | 535 | 577 | 99 | 625 | 532 | 574 | 93 | shifted the NanoLuc® luciferase spectral properties to red | 574 | –
8 | O=c1c(Cc2ccco2)nc2c(-c3ccccc3)[nH]c(-c3ccccc3)cn1-2 [AS-174, 2-(furan-2-ylmethyl)-6,8-diphenylimidazo[1,2-a]pyrazin-3(7H)-one] | – | – | – | – | – | – | 493 | 490 | 541 | 460 | 493 | 81 | 535 | 460 | 490 | 75 | shifted the NanoLuc® luciferase spectral properties to red | 496 | –
9 | O=c1c(Cc2ccco2)nc2c(Cc3ccccc3)[nH]c(-c3ccccc3)cn1-2 [Furimazine, 8-benzyl-2-(furan-2-ylmethyl)-6-phenylimidazo[1,2-a]pyrazin-3(7H)-one] | – | 436 | 490 | 403 | 436 | 87 | 463 | 463 | 520 | 433 | 463 | 87 | 499 | 430 | 463 | 69 | – | 460 | OptiMEM (spectral peak, Table 4) (Renilla luciferase [2]; Renilla): 430; High (Renilla luciferase [2]; Renilla, OptiMEM + 0.1% FBS): 472; Low (Renilla luciferase [2]; Renilla, OptiMEM + 0.1% FBS): 403; Peak (Renilla luciferase [2]; Renilla, OptiMEM + 0.1% FBS): 430; Width (Renilla luciferase [2]; Renilla, OptiMEM + 0.1% FBS): 69; light produced by NanoLuc luciferase compared to Renilla (NANOLUC® Luciferase [3]): significantly more light than Renilla; Vmax (NANOLUC® Luciferase [3]; [8]): 33,470,000; Vmax (Renilla luciferase [5]; [9]): 8,910
